In brackets after ≈: the same amount, converted by molar mass.
Key:
[1] = species on record: Mus musculus; experiment: Toxicity in Mus musculus (mouse) assessed as irritation; format: organism-based; conditions: in vivo
[2] = tested on: Pseudomonas aeruginosa; experiment: Antibacterial activity against Pseudomonas aeruginosa at 100 ug/ml by agar cup-plate method; format: functional; conditions: read-out: IZ
[3] = tested on: Escherichia coli; experiment: Antibacterial activity against Escherichia coli at 100 ug/ml by agar cup-plate method; format: functional; conditions: read-out: IZ
[4] = tested on: Pseudomonas; experiment: Antibacterial activity against […] at 100 ug/ml by agar cup-plate method; format: functional; conditions: read-out: IZ
[5] = tested on: Staphylococcus aureus; experiment: Antibacterial activity against Staphylococcus aureus at 100 ug/ml by agar cup-plate method; format: functional; conditions: read-out: IZ
[6] = tested on: Pseudomonas aeruginosa; experiment: Antibacterial activity against Pseudomonas aeruginosa after 24 hr by broth dilution method; format: functional
[7] = tested on: Escherichia coli; experiment: Antibacterial activity against Escherichia coli after 24 hr by broth dilution method; format: functional
[8] = tested on: Pseudomonas; experiment: Antibacterial activity against […] after 24 hr by broth dilution method; format: functional
[9] = tested on: Staphylococcus aureus; experiment: Antibacterial activity against Staphylococcus aureus after 24 hr by broth dilution method; format: functional

`Cc1c(/N=C/c2ccc(Cl)cc2)c(=O)n(-c2ccccc2)n1C` was tested, and the Activity [1] was “Non-toxic”, the zone of inhibition at 100 µg/mL [2] was 5 mm and the zone of inhibition at 100 µg/mL [3] was under 5 mm. For the same molecule, the zone of inhibition at 100 µg/mL [4] was under 5 mm and the zone of inhibition at 100 µg/mL [5] was 10 mm.

`CC1(C)S[C@@H]2[C@H](NC(=O)[C@H](N)c3ccccc3)C(=O)N2[C@H]1C(=O)O` [AMPICILLIN] was tested, and the Activity [1] was “Non-toxic”, the MIC [6] was 25 µg/mL (≈ 71.5 µM) and the MIC [7] was 25 µg/mL (≈ 71.5 µM). It also gave an MIC [8] of 25 µg/mL (≈ 71.5 µM), an MIC [9] of 25 µg/mL (≈ 71.5 µM) and a zone of inhibition at 100 µg/mL [2] of over 15 mm. The zone of inhibition at 100 µg/mL [3] was 10 mm, the zone of inhibition at 100 µg/mL [4] was 10 mm and the zone of inhibition at 100 µg/mL [5] was over 15 mm.

For `COc1ccc(/C=N/c2c(C)n(C)n(-c3ccccc3)c2=O)cc1`, the Activity [1] was “Non-toxic”, the zone of inhibition at 100 µg/mL [2] was under 5 mm and the zone of inhibition at 100 µg/mL [3] was 5 mm. It also gave a zone of inhibition at 100 µg/mL [4] of 10 mm and a zone of inhibition at 100 µg/mL [5] of 5 mm.

With `Cc1c(/N=C/c2ccccc2O)c(=O)n(-c2ccccc2)n1C` the Activity [1] was “Non-toxic”, the MIC [6] was 100 µg/mL (≈ 325 µM) and the MIC [7] was 75 µg/mL (≈ 244 µM). For the same molecule, the MIC [8] was 75 µg/mL (≈ 244 µM), the MIC [9] was 50 µg/mL (≈ 163 µM) and the zone of inhibition at 100 µg/mL [2] was 10 mm. It also gave a zone of inhibition at 100 µg/mL [3] of over 15 mm, a zone of inhibition at 100 µg/mL [4] of over 15 mm and a zone of inhibition at 100 µg/mL [5] of over 15 mm.

With `Cc1c(/N=C/c2ccco2)c(=O)n(-c2ccccc2)n1C` the Activity [1] was “Non-toxic”, the MIC [6] was 75 µg/mL (≈ 267 µM) and the MIC [7] was 75 µg/mL (≈ 267 µM). It also gave an MIC [8] of 75 µg/mL (≈ 267 µM), an MIC [9] of 50 µg/mL (≈ 178 µM) and a zone of inhibition at 100 µg/mL [2] of over 15 mm. The zone of inhibition at 100 µg/mL [3] was over 15 mm, the zone of inhibition at 100 µg/mL [4] was over 15 mm and the zone of inhibition at 100 µg/mL [5] was over 15 mm.

In the case of `Cc1c(/N=C/c2cccc([N+](=O)[O-])c2)c(=O)n(-c2ccccc2)n1C`, the Activity [1] is reported as “Non-toxic”, the zone of inhibition at 100 µg/mL [2] is reported as under 5 mm and the zone of inhibition at 100 µg/mL [3] is reported as 5 mm. For the same molecule, the zone of inhibition at 100 µg/mL [4] was under 5 mm and the zone of inhibition at 100 µg/mL [5] was 5 mm.

In the case of `Cc1c(/N=C/c2ccccc2)c(=O)n(-c2ccccc2)n1C`, the Activity [1] is reported as “Non-toxic”, the zone of inhibition at 100 µg/mL [2] is reported as under 5 mm and the zone of inhibition at 100 µg/mL [3] is reported as under 5 mm. It also gave a zone of inhibition at 100 µg/mL [4] of 10 mm and a zone of inhibition at 100 µg/mL [5] of over 15 mm.

`Cc1c(/N=C/c2ccccc2[N+](=O)[O-])c(=O)n(-c2ccccc2)n1C` was tested, and the Activity [1] was “Non-toxic”, the zone of inhibition at 100 µg/mL [2] was 5 mm and the zone of inhibition at 100 µg/mL [3] was under 5 mm. The zone of inhibition at 100 µg/mL [4] was under 5 mm and the zone of inhibition at 100 µg/mL [5] was 10 mm.

`[H]/N=C(/N)N[C@H]1[C@H](O)[C@@H](O)[C@H](O[C@@H]2O[C@@H](C)[C@](O)(C=O)[C@H]2O[C@@H]2O[C@@H](CO)[C@H](O)[C@@H](O)[C@@H]2NC)[C@@H](N/C(N)=N\[H])[C@@H]1O` [STREPTOMYCIN] was tested, and the Activity [1] was “Non-toxic”, the zone of inhibition at 100 µg/mL [2] was over 15 mm and the zone of inhibition at 100 µg/mL [3] was over 15 mm. The zone of inhibition at 100 µg/mL [4] was over 15 mm and the zone of inhibition at 100 µg/mL [5] was over 15 mm.

`Cc1c(/N=C/c2ccc(O)cc2)c(=O)n(-c2ccccc2)n1C` was tested, and the Activity [1] was “Non-toxic”, the zone of inhibition at 100 µg/mL [2] was 5 mm and the zone of inhibition at 100 µg/mL [3] was 5 mm. The zone of inhibition at 100 µg/mL [4] was under 5 mm and the zone of inhibition at 100 µg/mL [5] was 10 mm.

In the case of `Cc1c(/N=C/c2ccccc2Cl)c(=O)n(-c2ccccc2)n1C`, the Activity [1] is reported as “Non-toxic”, the MIC [6] is reported as 100 µg/mL (≈ 307 µM) and the MIC [7] is reported as 100 µg/mL (≈ 307 µM). It also gave an MIC [8] of 100 µg/mL (≈ 307 µM), an MIC [9] of 75 µg/mL (≈ 230 µM) and a zone of inhibition at 100 µg/mL [2] of over 15 mm. It also gave a zone of inhibition at 100 µg/mL [3] of over 15 mm, a zone of inhibition at 100 µg/mL [4] of over 15 mm and a zone of inhibition at 100 µg/mL [5] of over 15 mm.
